How the values were obtained:
Type in all cases: cell-based
[1] = system: Staphylococcus aureus (MRSA) ATCC 33591; assay: MIC against MRSA, microbroth dilution; conditions: MIC class
Method in brief: (§1)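 CLSI microbroth dilution in Mueller Hinton broth, compounds diluted from a 128 μg/mL test solution. Wells received 5 μL of a 1:10 dilution of a 0.5 McFarland suspension and were incubated 18-24 h at 35° C without CO2, then examined for growth. Each well was then subcultured onto horse blood agar for another 18-24 h.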

[2] = system: Enterococcus faecalis ATCC 29212; assay: MIC against E. faecalis, microbroth dilution; conditions: MIC class
Method in brief: as §1

[3] = system: Enterococcus faecium ATCC 35667; assay: MIC against E. faecium, microbroth dilution; conditions: MIC class
Method in brief: as §1

[4] = system: Staphylococcus aureus ATCC 25923; assay: MIC against S. aureus, microbroth dilution in MH broth, without or with 5% horse serum; conditions: MIC class; S. aureus ATCC 25923
Method in brief: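 Single-concentration screen at 128 μg/mL in MH broth, then CLSI microbroth twofold dilution in MH broth without or with 5% heat-inactivated horse serum. Inoculum from 0.5 McFarland suspension diluted 1:10; plates incubated 35° C, non-CO2, 18-24 h, then scored for visible growth.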

E. Faecium 51299 VanB = assay: MIC against vancomycin-resistant enterococcus 51299 (VanB), microbroth dilution; conditions: MIC class; ATCC 51299 VanB
Method in brief: as §1

Structure (SMILES) | S. Aureus 33591 MRSA activity [1] | E. Fecalis 29212 activity [2] | E. Faecium 35667 activity [3] | S. Aureus 25923 activity [4] | E. Faecium 51299 VanB activity (E. Faecium 51299 VanB)
O=C(Nc1ccc(Cl)c(C(F)(F)F)c1)NC1COC(CO)C(n2c(NCc3ccccc3)nc3cc(C(F)(F)F)ccc32)C1O (centres unmarked) [Compound 246] | ++ (“++”: MIC (μg/mL): MIC ≦ 16) | ++ (“++”: MIC (μg/mL): MIC ≦ 16) | + (“+”: MIC (μg/mL): 64 ≧ MIC > 16) | ++ (“++”: MIC (μg/mL): MIC ≦ 16) | + (“+”: MIC (μg/mL): 64 ≧ MIC > 16)
O=C(Nc1ccc(Cl)c(C(F)(F)F)c1)NC1COC(CO)C(n2c(NCc3ccc(Cl)cc3)nc3cc(C(F)(F)F)ccc32)C1O (centres unmarked) [Compound 247] | ++ (“++”: MIC (μg/mL): MIC ≦ 16) | ++ (“++”: MIC (μg/mL): MIC ≦ 16) | − (“−”: MIC (μg/mL): MIC > 64) | ++ (“++”: MIC (μg/mL): MIC ≦ 16) | ++ (“++”: MIC (μg/mL): MIC ≦ 16)
CC(C)(C)c1ccc(CNc2nc3cc(C(F)(F)F)ccc3n2C2C(CO)OCC(NC(=O)Nc3ccc(Cl)c(C(F)(F)F)c3)C2O)cc1 (centres unmarked) [Compound 248] | ++ (“++”: MIC (μg/mL): MIC ≦ 16) | ++ (“++”: MIC (μg/mL): MIC ≦ 16) | ++ (“++”: MIC (μg/mL): MIC ≦ 16) | ++ (“++”: MIC (μg/mL): MIC ≦ 16) | ++ (“++”: MIC (μg/mL): MIC ≦ 16)
O=C(Nc1ccc(Cl)c(C(F)(F)F)c1)NC1COC(CO)C(n2c(NCc3cccc(Oc4ccccc4)c3)nc3cc(C(F)(F)F)ccc32)C1O (centres unmarked) [Compound 249] | ++ (“++”: MIC (μg/mL): MIC ≦ 16) | ++ (“++”: MIC (μg/mL): MIC ≦ 16) | ++ (“++”: MIC (μg/mL): MIC ≦ 16) | ++ (“++”: MIC (μg/mL): MIC ≦ 16) | ++ (“++”: MIC (μg/mL): MIC ≦ 16)
O=C(Nc1ccc(Cl)c(C(F)(F)F)c1)NC1COC(CO)C(n2c(NCc3ccc4ccccc4c3)nc3cc(C(F)(F)F)ccc32)C1O (centres unmarked) [Compound 251] | ++ (“++”: MIC (μg/mL): MIC ≦ 16) | ++ (“++”: MIC (μg/mL): MIC ≦ 16) | ++ (“++”: MIC (μg/mL): MIC ≦ 16) | ++ (“++”: MIC (μg/mL): MIC ≦ 16) | ++ (“++”: MIC (μg/mL): MIC ≦ 16)
O=C(Nc1ccc(Cl)c(C(F)(F)F)c1)NC1COC(CO)C(n2c(Nc3ccc(Cl)cc3)nc3cc(C(F)(F)F)cc(Cl)c32)C1O (centres unmarked) [Compound 252] | − (“−”: MIC (μg/mL): MIC > 64) | + (“+”: MIC (μg/mL): 64 ≧ MIC > 16) | − (“−”: MIC (μg/mL): MIC > 64) | + (“+”: MIC (μg/mL): 64 ≧ MIC > 16) | − (“−”: MIC (μg/mL): MIC > 64)
O=C(Nc1ccc(Cl)c(C(F)(F)F)c1)NC1COC(CO)C(n2c(Nc3ccc(C(F)(F)F)cc3)nc3cc(C(F)(F)F)cc(Cl)c32)C1O (centres unmarked) [Compound 253] | − (“−”: MIC (μg/mL): MIC > 64) | + (“+”: MIC (μg/mL): 64 ≧ MIC > 16) | − (“−”: MIC (μg/mL): MIC > 64) | − (“−”: MIC (μg/mL): MIC > 64) | − (“−”: MIC (μg/mL): MIC > 64)
O=C(Nc1ccc(Cl)c(C(F)(F)F)c1)NC1COC(CO)C(n2c(Nc3ccc(-c4ccccc4)cc3)nc3cc(C(F)(F)F)cc(Cl)c32)C1O (centres unmarked) [Compound 254] | ++ (“++”: MIC (μg/mL): MIC ≦ 16) | − (“−”: MIC (μg/mL): MIC > 64) | − (“−”: MIC (μg/mL): MIC > 64) | ++ (“++”: MIC (μg/mL): MIC ≦ 16) | − (“−”: MIC (μg/mL): MIC > 64)
O=C(Nc1ccc(Cl)c(C(F)(F)F)c1)NC1COC(CO)C(n2c(NCc3ccccc3)nc3cc(C(F)(F)F)cc(Cl)c32)C1O (centres unmarked) [Compound 255] | ++ (“++”: MIC (μg/mL): MIC ≦ 16) | ++ (“++”: MIC (μg/mL): MIC ≦ 16) | − (“−”: MIC (μg/mL): MIC > 64) | ++ (“++”: MIC (μg/mL): MIC ≦ 16) | + (“+”: MIC (μg/mL): 64 ≧ MIC > 16)
O=C(Nc1ccc(Cl)c(C(F)(F)F)c1)NC1COC(CO)C(n2c(NCc3ccc(Cl)cc3)nc3cc(C(F)(F)F)cc(Cl)c32)C1O (centres unmarked) [Compound 256] | − (“−”: MIC (μg/mL): MIC > 64) | ++ (“++”: MIC (μg/mL): MIC ≦ 16) | − (“−”: MIC (μg/mL): MIC > 64) | − (“−”: MIC (μg/mL): MIC > 64) | ++ (“++”: MIC (μg/mL): MIC ≦ 16)

Source: patent US7989422B2, “Antibacterial agents” (Alchemia Limited, priority 2005, dated 2011)
